pEC50: −log10 of the molar value.
System: HIV-1 (H9IIIB strain)
Test: Cell-Based HIV Infection Assay Using a Reporter (MT4-GFP cells)
Conditions: Human immunodeficiency virus 1, inflection point (IP) of viral growth inhibition; MT4-GFP cells infected with HIV-1 H9IIIB; 50% normal human serum; mean of at least two independent experiments; read-out: Cell Based IP (50% NHS)
In short: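 MT4-GFP cells (HIV LTR-driven GFP) bulk-infected with HIV-1 H9IIIB at low MOI for 24 h, washed, then exposed to compounds in RPMI plus 50% normal human serum, 0.4% DMSO. Infected cells counted at 24 and 48 h; R0 = 48 h/24 h ratio, inhibition normalised to DMSO and triple-drug control; IP from 4-parameter fit.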

COC(=O)N[C@H](C(=O)Nc1cccc(F)c1CCC1CN[C@@H]2CCCS(=O)(=O)N1C2)[C@H](CC(C)C)c1ccc(F)cc1 (stereo partly drawn) [Example 90, methyl [(1S,2R)-1-[(2-{2-[(6R)-2,2-dioxido-2-thia-1,7-diazabicyclo[4.3.1]dec-9-yl]ethyl}-3-fluorophenyl)carbamoyl]-2-(4-fluorophenyl)-4-methylpcnlyl]carbamate] was tested. Which pEC50 did it give?
The pEC50 was 7.64.

N[C@H](C(=O)Nc1c(F)ccc(F)c1CC[C@H]1CN[C@@H]2CCCS(=O)(=O)N1C2)[C@@H](c1ccc(Cl)cc1)C1CCOCC1 [Example 91, (βR)-4-chloro-N-(2-{2-[(6R,9S)-2,2-dioxido-2-thia-1,7-diazabicyclo[4.3.1]dec-9-yl]ethyl}-3,6-difluorophenyl)-β-(tetrahydro-2H-pyran-4-yl)-L-phenylalaninamide] was tested. Which pEC50 did it give?
Its pEC50 is 7.66.

N[C@H](C(=O)Nc1cccc(F)c1CCC1CNC2CCCS(=O)(=O)N1C2)[C@H](c1cncc(C(F)(F)F)c1)c1ccc(Cl)c(F)c1 (stereo partly drawn) [Example 227, (βS)-4-Chloro-N-{2-[2-(2,2-dioxido-2-thia-1,7-diazabicyclo[4.3.1]dec-9-yl)ethyl]-3-fluorophenyl}-3-fluoro-β-[5-(trifluoromethyl)pyridin-3-yl]-L-phenylalaninamide] was tested. Which pEC50 did it give?
The pEC50 was 8.15.

With C[C@@H]1CC([C@H](c2ccc(Cl)cc2)[C@H](N)C(=O)N[C@H]2CCC[C@@H]2CC[C@H]2CN[C@@H]3CCCS(=O)(=O)N2C3)C[C@H](C)O1 (stereo partly drawn) [Example 196, (βR)-4-chloro-β-[(2R,4s,6S)-2,6-dimethyltetrahydro-2H-pyran-4-yl]-N-[(1S,2R)-2-{2-[(6R,9S)-2,2-dioxido-2-thia-1,7-diazabicyclo[4.3.1]dec-9-yl]ethyl}cyclopentyl]-L-phenylalaninamide] as the compound, how does the pEC50 read?
Its pEC50 is 6.92.

How did the pEC50 turn out when N[C@H](C(=O)Nc1cccc(F)c1CCC1CNC2CCCS(=O)(=O)N1C2)[C@@H](c1ccc(F)cc1)c1ccc(C(F)(F)F)cc1 (stereo partly drawn) [Example 33, (βR)—N-{2-[2-(2,2-Dioxido-2-thia-1,7-diazabicyclo[4.3.1]dec-9-yl)ethyl]-3-fluorophenyl}-β-(4-fluorophenyl)-4-(trifluoromethyl)-L-phenylalaninamide] was run?
The pEC50 was 8.07.

N[C@H](C(=O)Nc1cccc(F)c1CC[C@H]1CN[C@@H]2CCCS(=O)(=O)N1C2)C1(c2ccc(Cl)cc2)CCNCC1 [Example 185, (2S)-2-amino-2-[4-(4-chlorophenyl)piperidin-4-yl]-N-(2-{2-[(6R,9S)-2,2-dioxido-2-thia-1,7-diazabicyclo[4.3.1]dec-9-yl]ethyl}-3-fluorophenyl)ethanamide] was tested. Which pEC50 did it give?
The pEC50 was 5.48.

N[C@H](C(=O)Nc1cccc(F)c1CC[C@H]1CN[C@@H]2CCCS(=O)(=O)N1C2)[C@@H](c1ccc(Cl)cc1)c1csc(C(F)(F)F)n1 [Example 251, (βR)-4-chloro-N-(2-{2-[(6R,9S)-2,2-dioxido-2-thia-1,7-diazabicyclo[4.3.1]dec-9-yl]ethyl}-3-fluorophenyl)-β-[2-(trifluoromethyl)-1,3-thiazol-4-yl]-L-phenylalaninamide] was tested. Which pEC50 did it give?
The pEC50 was 8.04.

How did the pEC50 turn out when COC(=O)N[C@H](C(=O)Nc1cccc(F)c1CCC1CNC2CCCS(=O)(=O)N1C2)[C@@H](c1ccc(Cl)cc1)C(C)C (stereo partly drawn) [Example 3, Methyl [(1S,2R)-2-(4-chlorophenyl)-1-({2-[2-(2,2-dioxido-2-thia-1,7-diazabicyclo[4.3.1]dec-9-yl)ethyl]-3-fluorophenyl}carbamoyl)-3-methylbutyl]carbamate] was run?
Its pEC50 is 7.85.

With CCC(CC)[C@H](c1ccc(Cl)cc1)[C@H](N)C(=O)Nc1cncc(F)c1CC[C@H]1CN[C@@H]2CCCS(=O)(=O)N1C2 [Example 242, (2S,3R)-2-amino-3-(4-chlorophenyl)-N-(4-(2-((6R,9S)-2,2-dioxido-2-thia-1,7-diazabicyclo[4.3.1]decan-9-yl)ethyl)-5-fluoropyridin-3-yl)-4-ethylhexanamide] as the compound, how does the pEC50 read?
Its pEC50 is 7.77.

With N[C@H](C(=O)N[C@H]1CCC[C@@H]1CC[C@H]1CN[C@@H]2CCCS(=O)(=O)N1C2)[C@H](c1cncc(C(F)(F)F)c1)c1ccc(Cl)c(F)c1 [Example 76, (βS)-4-chloro-N-[(1S,2R)-2-{2-[(6R,9S)-2,2-dioxido-2-thia-1,7-diazabicyclo[4.3.1]dec-9-yl]ethyl}cyclopentyl]-3-fluoro-β-[5-(trifluoromethyl)pyridin-3-yl]-L-phenylalaninamide] as the compound, how does the pEC50 read?
Its pEC50 is 7.52.

How did the pEC50 turn out when CC1(C)CC([C@H](c2ccc(Cl)cc2)[C@H](NCCCC(F)(F)F)C(=O)N[C@H]2CCC[C@@H]2CC[C@H]2CN[C@@H]3CCCS(=O)(=O)N2C3)CCO1 (stereo partly drawn) [Example 184, (βR)-4-chloro-β-(2,2-dimethyltetrdhydro-2H-pyran-4-yl)-N-[(1S,2R)-2-{2-[(6R,9S)-2,2-dioxido-2-thia-1,7-diazabicyclo[4.3.1]dec-9-yl]ethyl}cyclopentyl]-Nα-(4,4,4-trifluorobutyl)-L-phenylalaninamide] was run?
Its pEC50 is 6.48.

With CC1(C)C[C@@H]([C@H](c2ccc(F)cc2)[C@H](N)C(=O)N[C@H]2CCCC[C@@H]2CC[C@H]2CN[C@@H]3CCCS(=O)(=O)N2C3)CCO1 [Example 148, (βR)-β-[(4S)-2,2-dimethyhetrahydro-2H-pyran-4-yl]-N-[(1S,2R)-2-{2-[(6R,9S)-2,2-dioxido-2-thia-1,7-diazabicyclo[4.3.1]dec-9-yl]ethyl}cyclohexyl]-4-fluoro-L-phenylalaninamide] as the compound, how does the pEC50 read?
The pEC50 was 6.80.

How did the pEC50 turn out when COC(=O)N[C@H](C(=O)N[C@H]1CCC[C@@H]1CC[C@H]1CN[C@@H]2CCCS(=O)(=O)N1C2)[C@@H](c1ccc(F)cc1)C1C[C@@H](C)O[C@@H](C)C1 (stereo partly drawn) [Example 108, methyl [(1S,2R)-2-[(2R,4s,6S)-2,6-dimethyltetrahydro-2H-pyran-4-yl]-1-{[(1S,2R)-2-{2-[(6R,9S)-2,2-dioxido-2-thia-1,7-diazabicyclo[4.3.1]dec-9-yl]ethyl}cyclopentyl]carbamoyl}-2-(4-fluorophenyl)ethyl]carbamate] was run?
The pEC50 was 7.30.

How did the pEC50 turn out when CC(C)Oc1cnc([C@H](c2ccc(Cl)cc2)[C@H](N)C(=O)Nc2cccc(F)c2CC[C@H]2CN[C@@H]3CCCS(=O)(=O)N2C3)cn1 [Example 259, (βR)-4-chloro-N-(2-{2-[(6R,9S)-2,2-dioxido-2-thia-1,7-diazabicyclo[4.3.1]dec-9-yl]ethyl}-3-fluorophenyl)-β-[5-(1-methylethoxy)pyrazin-2-yl]-L-phenylalaninamide] was run?
The pEC50 was 8.38.

With COC(=O)N[C@H](C(=O)Nc1cccc(F)c1CC[C@H]1CN[C@@H]2CCCS(=O)(=O)N1C2)[C@@H](c1ccc(Cl)cc1)[C@H]1CCO[C@@H](CC(F)(F)F)C1 [Example 8, Methyl ((1R,2S)-1-(4-chlorophenyl)-3-((2-(2-((6R,9S)-2,2-dioxido-2-thia-1,7-diazabicyclo[4.3.1]decan-9-yl)ethyl)-3-fluorophenyl)amino)-3-oxo-1-((2R,4S)-2-(2,2,2-trifluoroethyl)tetrahydro-2H-pyran-4-yl)propan-2-yl)carbamate] as the compound, how does the pEC50 read?
The pEC50 was 8.06.

With COC(=O)N[C@H](C(=O)Nc1cccc(F)c1CC[C@H]1CNC2CCCS(=O)(=O)N1C2)C1(c2ccc(F)cc2)CCC(F)(F)CC1 (stereo partly drawn) [Example 41, methyl {(1S)-1-[4,4-difluoro-1-(4-fluorophenyl)cyclohexyl]-2-[(2-{2-[(9S)-2,2-dioxido-2-thia-1,7-diazabicyclo[4.3.1]dec-9-yl]ethyl}-3-fluorophenyl)amino]-2-oxoethyl}carbamate] as the compound, how does the pEC50 read?
The pEC50 was 7.37.

COC(=O)N[C@H](C(=O)Nc1cccc(F)c1CC[C@H]1CN[C@@H]2CCCS(=O)(=O)N1C2)[C@@H](c1ccc(Cl)cc1)C1CCC(C)(C)OC1 (stereo partly drawn) [Example 271, methyl {(1S,2R)-2-(4-chlorophenyl)-2-(6,6-dimethyltetrahydro-2H-pyran-3-yl)-1-[(2-{2-[(6R,9S)-2,2-dioxido-2-thia-1,7-diazabicyclo[4.3.1]dec-9-yl]ethyl}-3-fluorophenyl)carbamoyl]ethyl}carbamate] was tested. Which pEC50 did it give?
Its pEC50 is 8.15.

COC(=O)N[C@H](C(=O)Nc1ccc(F)c(F)c1CC[C@H]1CN[C@@H]2CCCS(=O)(=O)N1C2)[C@@H](c1ccc(F)cc1)C1CCOC(C)(C)C1 (stereo partly drawn) [Example 28, Methyl [(1S,2R)-2-(2,2-dimethyltetrahydro-2H-pyran-4-yl)-1-[(2-{2-[(6R,9S)-2,2-dioxido-2-thia-1,7-diazabicyclo[4.3.1]dec-9-yl]ethyl}-3,4-difluorophenyl)carbamoyl]-2-(4-fluorophenyl)ethyl]carbamate] was tested. Which pEC50 did it give?
The pEC50 was 7.89.

With COC(=O)N[C@H](C(=O)Nc1cccc(F)c1CC[C@H]1CN[C@@H]2CCCS(=O)(=O)N1C2)[C@@H](c1ccc(F)cc1)c1cnc(C(F)(F)F)nc1 [Example 22, Methyl [(1S)-2-[(2-{2-[(6R,9S)-2,2-dioxido-2-thia-1,7-diazabicyclo[4.3.1]dec-9-yl]ethyl}-3-fluorophenyl)amino]-1-{(S)-(4-fluorophenyl)[2-(trifluoromethyl)pyrimidin-5-yl]methyl}-2-oxoethyl]carbamate] as the compound, how does the pEC50 read?
Its pEC50 is 7.82.

How did the pEC50 turn out when COC(=O)N[C@H](C(=O)Nc1cccc(F)c1CC[C@H]1CN[C@@H]2CCCS(=O)(=O)N1C2)[C@@H](c1ccc(F)cc1)c1cnc(OC(C)C)nc1 [Example 206, methyl [(1S)-2-[(2-{2-[(6R,9S)-2,2-dioxido-2-thia-1,7-diazabicyclo[4.3.1]dec-9-yl]ethyl}-3-fluorophenyl)amino]-1-{(S)-(4-fluorophenyl)[2-(1-methylethoxy)pyrimidin-5-yl]methyl}-2-oxoethyl]carbamate] was run?
The pEC50 was 7.80.

With N[C@H](C(=O)N[C@H]1CCCC[C@@H]1CC[C@H]1CN[C@@H]2CCCS(=O)(=O)N1C2)[C@H](c1cncc(C(F)(F)F)c1)c1ccc(Cl)c(F)c1 [Example 150] as the compound, how does the pEC50 read?
Its pEC50 is 7.66.

With CCO[C@H]1CC[C@H](C(c2ccc(Cl)c(F)c2)[C@H](N)C(=O)Nc2cccc(F)c2CC[C@H]2CN[C@@H]3CCCS(=O)(=O)N2C3)CC1 (stereo partly drawn) [Example 248, (βR).4-chloro-N-(2-{2-[(6R,9S)-2,2-dioxido-2-thia-1,7-diazabicyclo[4.3.1]dec-9-yl]ethyl}-3-fluorophenyl)-β-[(1r,4R)-4-ethoxycyclohexyl]-3-fluoro-L-phenylalaninamide] as the compound, how does the pEC50 read?
The pEC50 was 8.26.

From patent US10138255B2, “Piperazine derivatives as HIV protease inhibitors” (Merck Sharp & Dohme Corp., priority 2014, dated 2018)
